The compounds below were run against T1, PTK2 (Homo sapiens, UniProt Q05397) (assay: PTK2 enzyme test, Assay 1 (DELFIA, PT60 antibody)). Details: 1 h pre-incubation, 1 h kinase reaction, values without *.
T1 construct: purchased Invitrogen PV3832
Assay type: biochemical
Method: This test uses active PTK2 enzyme (Invitrogen Code PV3832) and poly-Glu-Tyr (4:1, Sigma P-0275) as the kinase substrate. The kinase activity is detected through the phosphorylation of the substrate in a DELFIA™ assay. The phosphorylated substrate is detected with the europium-labelled phosphotyrosine antibody PT60 (Perkin Elmer, No.: AD00400).
In order to determine concentration-activity curves with PTK2-inhibitors the compounds are serially diluted in 10% DMSO/H20 and 10 μL of each dilution are placed in each well of a 96-well microtitre plate (clear plate with a U-shaped base, Greiner No. 650101) (the inhibitors are tested in duplicates) and mixed with 10 μL/well of PTK2 kinase (0.01 μg/well). PTK2 kinase has been correspondingly diluted beforehand with kinase dilution buffer (20 mM TRIS/HCl pH 7.5, 0.1 mM EDTA, 0.1 mM EGTA, 0.286 mM sodium orthovanadate, 10% glycerol with the addition of freshly prepared BSA (fraction V, 1 mg/mL) and DTT (1 mM)). The test compound and the PTK2 kinase are pre-incubated for 1 h at RT and shaken at 500 revolutions per min. The reaction is started by the addition of 10 μL/well poly (Glu,Tyr) substrate (25 μg/well poly (Glu, Tyr), 0.05 μg/well biotinylated poly (Glu,Tyr) dissolved in 250 mM TRIS/HCl pH 7.5, 9 mM DTT)—the final concentration of DMSO is 2%. Then 20 μL of ATP Mix (30 mM TRIS/HCl pH 7.5, 0.02% Brij, 0.2 mM sodium orthovanadate, 10 mM magnesium acetate, 0.1 mM EGTA, 1× phosphatase inhibitor cocktail 1 (Sigma, No.: P2850), 50 μM ATP (Sigma, No.: A3377; 15 mM stock solution)) are added. After 1 h of kinase reaction (the plates are shaken at 500 rpm), the reaction is stopped by the addition of 12 μL/well 100 mM EDTA, pH 8.0 and shaken for a further 5 min at RT (500 rpm). 55 μL of the reaction mixture are transferred into a streptavidin plate (Strepta Well High Bind (transparent, 96-well) made by Roche, No.: 11989685001) and incubated for 1 h at RT (shaking at 500 rpm). Then the microtitre plate is washed three times with 200 μL/well D-PBS (Invitrogen, No. 14190). 100 μL of a solution containing DELFIA Eu-N1 Anti-Phosphotyrosine PT60 antibody (Perkin Elmer, No.: AD0040, diluted 1:2000 in DELFIA test buffer (Perkin Elmer, No.: 1244-111)) is then added and the mixture is incubated for 1 h at RT (shaking at 500 rpm). Then the plate is washed three times with 200 μL/well DELFIA washing buffer (Perkin Elmer, No.: 1244-114), 200 μL/well strengthening solution (Perkin Elmer, No.: 1244-105) are added and the mixture is incubated for 10 min at RT (shaking at 300 rpm).
The time-delayed europium fluorescence is then measured in a microtitre plate reader (VICTOR^3, Perkin Elmer). […] Wells that contain test buffer instead of enzyme are used as a control of the background kinase activity.
The IC50 values are determined from analyses of the concentration activity by iterative calculation with the aid of a sigmoid curve analysis algorithm (FIFTY, based on GraphPAD Prism Version 3.03) with a variable Hill coefficient.

T1 sequence (Q05397 whole entry): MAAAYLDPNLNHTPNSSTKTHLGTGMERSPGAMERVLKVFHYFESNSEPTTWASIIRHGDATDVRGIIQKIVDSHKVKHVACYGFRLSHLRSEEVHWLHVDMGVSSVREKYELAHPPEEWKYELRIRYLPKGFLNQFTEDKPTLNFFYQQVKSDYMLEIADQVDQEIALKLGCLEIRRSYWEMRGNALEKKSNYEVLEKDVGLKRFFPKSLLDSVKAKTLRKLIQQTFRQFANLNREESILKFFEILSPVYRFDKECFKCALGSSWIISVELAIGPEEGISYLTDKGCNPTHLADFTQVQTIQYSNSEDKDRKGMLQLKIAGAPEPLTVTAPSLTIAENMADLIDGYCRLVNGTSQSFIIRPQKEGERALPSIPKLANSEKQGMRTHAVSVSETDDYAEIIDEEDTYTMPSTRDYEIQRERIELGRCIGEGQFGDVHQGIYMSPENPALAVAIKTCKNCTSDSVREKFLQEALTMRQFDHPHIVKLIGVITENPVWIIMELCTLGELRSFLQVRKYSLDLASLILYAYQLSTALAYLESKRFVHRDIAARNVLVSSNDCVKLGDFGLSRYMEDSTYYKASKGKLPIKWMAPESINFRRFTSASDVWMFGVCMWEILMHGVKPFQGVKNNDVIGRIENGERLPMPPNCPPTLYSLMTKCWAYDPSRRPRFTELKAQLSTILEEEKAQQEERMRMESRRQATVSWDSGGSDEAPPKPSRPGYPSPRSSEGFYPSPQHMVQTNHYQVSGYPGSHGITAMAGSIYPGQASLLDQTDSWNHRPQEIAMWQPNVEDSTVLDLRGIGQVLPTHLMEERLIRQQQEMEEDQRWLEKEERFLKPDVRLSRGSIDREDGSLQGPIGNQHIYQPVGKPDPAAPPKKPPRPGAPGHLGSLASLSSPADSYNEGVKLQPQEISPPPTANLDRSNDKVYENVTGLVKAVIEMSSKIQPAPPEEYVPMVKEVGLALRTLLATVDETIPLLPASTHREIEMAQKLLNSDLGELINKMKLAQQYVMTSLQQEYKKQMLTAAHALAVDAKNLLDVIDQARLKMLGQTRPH

SMILES	IC50 [nM]
COc1cc(C(=O)NC2CCN(C)CC2)c(F)cc1Nc1ncc(C(F)(F)F)c(O[C@@H]2CCC[C@H]2NS(=O)(=O)CCl)n1 [Example 45]	5
COc1cc(C(=O)N[C@H]2CCN(C)C[C@@H]2OC)c(F)cc1Nc1ncc(C(F)(F)F)c(O[C@@H]2Cc3ccccc3[C@H]2N(C)S(C)(=O)=O)n1 [Example 31, 2-fluoro-4-{4-[(1R,2R)-1-(methanesulphonyl-methyl-amino)-indan-2-yloxy]-5-trifluoromethyl-pyrimidin-2-ylamino}-5-methoxy-N-((3S,4S)-3-methoxy-1-methyl-piperidin-4-yl)-benzamide]	3
COc1cc(C(=O)NC2CCN(C)CC2)c(Cl)cc1Nc1ncc(Cl)c(O[C@@H]2Cc3ccccc3[C@H]2N(C)S(C)(=O)=O)n1 [Example 62]	3
COc1cc(C(=O)NCCN(C)C)c(Cl)cc1Nc1ncc(C(F)(F)F)c(O[C@@H]2CCCC[C@H]2N(C)S(C)(=O)=O)n1 [Example 109]	0.35
COc1cc(C(=O)NC2CCN(C)CC2)c(Cl)cc1Nc1ncc(C(F)(F)F)c(O[C@@H]2CCC[C@H]2N(C)S(C)(=O)=O)n1 [Example 102, 2-chloro-4-{4-[(1R,2R)-2-(methanesulphonyl-methyl-amino)-cyclopentyloxy]-5-trifluoromethyl-pyrimidin-2-ylamino}-5-methoxy-N-(1-methyl-piperidin-4-yl)-benzamide]	0.61
CS(=O)(=O)N[C@@H]1CCC[C@H]1Oc1nc(Nc2ccc3ncsc3c2)ncc1C(F)(F)F [Example 97]	2
CNC(=O)c1cc(OC)c(Nc2ncc(Cl)c(O[C@@H]3Cc4ccccc4[C@H]3N(C)S(C)(=O)=O)n2)cc1F [Example 67]	16
COc1cc(C(=O)NCCN2CCN(C)CC2)c(Cl)cc1Nc1ncc(Cl)c(O[C@@H]2Cc3ccccc3[C@H]2N(C)S(C)(=O)=O)n1 [Example 34]	2
CONC(=O)c1cc(OC)c(Nc2ncc(Cl)c(O[C@@H]3Cc4ccccc4[C@H]3N(C)S(C)(=O)=O)n2)cc1Cl [Example 38]	1
COc1cc(C(=O)NCCCN(C)C)c(F)cc1Nc1ncc(Cl)c(O[C@@H]2Cc3ccccc3[C@H]2N(C)S(C)(=O)=O)n1 [Example 60]	3
COc1cc(C(=O)NCC(C)(C)C)c(Cl)cc1Nc1ncc(Cl)c(O[C@@H]2Cc3ccccc3[C@H]2N(C)S(C)(=O)=O)n1 [Example 39]	6
COc1cc(NC(=O)C2CCCN(C)C2)ccc1Nc1ncc(C(F)(F)F)c(O[C@@H]2Cc3ccccc3[C@H]2N(C)S(C)(=O)=O)n1 (stereo partly shown) [Example 92]	3
COc1cc(C(=O)NCCN(C)C)ccc1Nc1ncc(C(F)(F)F)c(O[C@@H]2CCCC[C@H]2N(C)S(C)(=O)=O)n1 [Example 111]	0.36
COc1cc(C(=O)NC2CCN(C)CC2)c(Cl)cc1Nc1ncc(C(F)(F)F)c(O[C@@H]2CCC[C@H]2NS(=O)(=O)C2CC2)n1 [Example 48]	22
COc1cc(C(=O)N(C)C)c(Cl)cc1Nc1ncc(Cl)c(O[C@@H]2Cc3ccccc3[C@H]2N(C)S(C)(=O)=O)n1 [Example 37]	28
COc1cc(C(=O)NC2CCN(C)CC2)c(F)cc1Nc1ncc(Cl)c(O[C@@H]2CCC[C@H]2N(C)S(C)(=O)=O)n1 [Example 85, 4-{5-chloro-4-[(1R,2R)-2-(methanesulphonyl-methyl-amino)-cyclopentyloxy]-pyrimidin-2-ylamino}-2-fluoro-5-methoxy-N-(1-methyl-piperidin-4-yl)-benzamide]	0.37
COc1cc(C(=O)NC2CCN(C)CC2)ccc1Nc1ncc(C(F)(F)F)c(O[C@@H]2Cc3ccccc3[C@H]2NC(C)=O)n1 [Example 68, 4-[4-((1R,2R)-1-acetylamino-indan-2-yloxy)-5-trifluoromethyl-pyrimidin-2-ylamino]-3-methoxy-N-(1-methyl-piperidin-4-yl)-benzamide]	2
COc1cc(C(=O)NC2CCN(C)CC2)c(Cl)cc1Nc1ncc(C(F)(F)F)c(O[C@@H]2Cc3ccccc3[C@H]2NS(C)(=O)=O)n1 [Example 87]	0.28
COc1cc(C(=O)NCCn2ccnc2C)ccc1Nc1ncc(C(F)(F)F)c(O[C@@H]2Cc3ccccc3[C@H]2N(C)S(C)(=O)=O)n1 [Example 13]	4
